Tests used:
[1] = target: T1, tyramine receptor (TyrR) (Drosophila melanogaster, UniProt P22270); experiment: Tyramine receptor binding with 3H-tyramine in transfected Schneider cells
T1 construct: The open reading frame of the Drosophila tyramine receptor (TyrR) may be amplified via PCR; expressed in transfected cells; host or cells: Drosophila Schneider cells
T1 sequence (P22270 27-601): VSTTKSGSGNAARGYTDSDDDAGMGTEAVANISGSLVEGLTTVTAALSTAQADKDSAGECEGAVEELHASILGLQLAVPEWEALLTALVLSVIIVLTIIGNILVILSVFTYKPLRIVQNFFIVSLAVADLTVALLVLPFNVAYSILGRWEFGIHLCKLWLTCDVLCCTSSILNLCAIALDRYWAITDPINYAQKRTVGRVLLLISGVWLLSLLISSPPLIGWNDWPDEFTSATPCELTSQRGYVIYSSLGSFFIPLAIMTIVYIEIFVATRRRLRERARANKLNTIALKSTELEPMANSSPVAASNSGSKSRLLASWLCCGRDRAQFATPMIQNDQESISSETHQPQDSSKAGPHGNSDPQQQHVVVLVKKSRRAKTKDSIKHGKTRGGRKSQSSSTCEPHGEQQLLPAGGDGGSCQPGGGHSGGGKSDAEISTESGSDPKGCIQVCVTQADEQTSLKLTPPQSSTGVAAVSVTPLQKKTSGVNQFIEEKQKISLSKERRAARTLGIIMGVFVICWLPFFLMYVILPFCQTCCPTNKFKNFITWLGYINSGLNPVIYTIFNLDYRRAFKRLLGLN
Excerpt: Tyramine receptor may be amplified, for example, from a Drosophila melanogaster head cDNA phage library. Phage DNA may be purified from this library by known methods using a liquid culture lysate. The open reading frame of the Drosophila tyramine receptor (TyrR) may be amplified via PCR, and the PCR product may be digested, and the TyrR open reading frame may be inserted into an expression vector using known methods, and transfected Schneider cell clones may be prepared.
Tyramine receptor binding/uptake may be performed to determine which of the transfected clones have the highest levels of functionally active tyramine receptor protein, and the selected clone may be propagated and stored in liquid nitrogen. Aliquots of the selected clone are grown for whole cell binding and for plasma membrane preparation for kinetic and screening studies.
For binding studies, cells transfected with the tyramine receptor (about 1×10^6 cells/ml) are cultured in each well of a multi-well plate, and binding is assessed using ^3H-tyramine and unlabeled tyramine. […] Saturation binding experiments may be performed to determine Bmax and Kd values for TyrR.

[2] = tested on: tyramine receptor mutant (TyrRneo30) strains; format: in vivo, Drosophila; conditions: topically applied at LD50 determined against wild type; mortality 24 h after treatment; FIG. 4
Procedure: LD50 values of tested chemicals (determined against wild type Drosophila) were topically applied against wild type and tyramine receptor mutant (TyrRneo30) strains. Mortality was determined 24 h after treatment. Data are the average of three replicates, 5 flies per replicate. This experiment was repeated five times.

[3] = tested on: wild-type strain of E. coli; experiment: MIC over successive weeks (resistance development) in E. coli; format: cell-based; conditions: MIC determined weekly and applied, repeated for 4 weeks
Procedure: Test compositions and conventional pesticides are compared to determine their respective ability to maintain pesticidal effectiveness over successive generations of pest species. For example, a wild-type strain of E. coli is treated with both penicillin (group 1) and a test composition from Table 1 or Table 2 (group 2). MIC (minimum inhibitory concentration; the lowest concentration of an antibacterial that will inhibit the visible growth of a microorganism after overnight incubation) values are determined at 1-week post-treatment for both groups, and the appropriate MIC amount is applied to both test populations. This is repeated for 4 weeks. […] In contrast, the MIC value for group 2 remains static, indicating a lack of resistance development among the group 2 population.

Molecule: NCCc1ccc(O)cc1 [Blend 3H-tyramine, ^3H-tyramine]
- 3H-tyramine concentration at which maximum specific binding occurs ([1]; cells transfected with the tyramine receptor): about 5 nM

Molecule: Cc1ccc(C(C)C)cc1O [carvacrol]
- effect (mortality) on Drosophila expressing a mutant form of the tyramine receptor [2]: did not affect

Molecule: NCCc1ccc(O)cc1 [tyramine]
- response of untransfected cells to tyramine ([1]; untransfected cells, concentration as high as about 100 μM): do not respond

Molecule: penicillin
- course of the MIC value over time (resistance development) [3]: increases over time
